For the experiment, the target named is Human thrombin (Homo sapiens (Human), UniProt P00734). As to the kind of experiment: Thrombin protease activity inhibition assay (chromogenic substrate S-2238). As to conditions: 3 nM thrombin, 125 μM S-2238, 10 min pre-incubation, RT. In kind it is biochemical. The procedure, abridged: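 Ten-point, three-fold serial dilutions of compound tested against 3 nM enzyme at RT in Tris buffer (0.05 M, pH 7.4) with 0.015 M NaCl and 0.01% PEG-8000.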
Regarding `CC1(C(=O)n2nc(-c3cccn(Cc4ccccn4)c3=O)cc2NCc2ccc(Cl)s2)CCOCC1` [Cmpd 153, 3-(5-[(5-chlorothiophen-2-yl)methyl]amino-1-[(4-methyloxan-4-yl)carbonyl]-1H-pyrazol-3-yl)-1-(pyridin-2-ylmethyl)-1,2-dihydropyridin-2-one], the IC50 was below 100 nM.

In turn, `CC1(C(=O)n2nc(-c3cccn(Cc4cccnc4)c3=O)cc2NCc2ccc(Cl)s2)CCOCC1` [Cmpd 154, 3-(5-[(5-chlorothiophen-2-yl)methyl]amino-1-[(4-methyloxan-4-yl)carbonyl]-1H-pyrazol-3-yl)-1-(pyridin-3-ylmethyl)-1,2-dihydropyridin-2-one] had an IC50 below 100 nM.

With `CC1(C(=O)n2nc(-c3cccn(Cc4ccncc4)c3=O)cc2NCc2ccc(Cl)s2)CCOCC1` [Cmpd 155, 3-(5-[(5-chlorothiophen-2-yl)methyl]amino-1-[(4-methyloxan-4-yl)carbonyl]-1H-pyrazol-3-yl)-1-(pyridin-4-ylmethyl)-1,2-dihydropyridin-2-one], the IC50 is below 100 nM.

`CC1(C(=O)n2nc(-c3cccn(Cc4ncccn4)c3=O)cc2NCc2ccc(Cl)s2)CCOCC1` [Cmpd 156, 3-(5-[(5-chlorothiophen-2-yl)methyl]amino-1-[(4-methyloxan-4-yl)carbonyl]-1H-pyrazol-3-yl)-1-(pyrimidin-2-ylmethyl)-1,2-dihydropyridin-2-one] came in with a concentration for half-maximal inhibition (IC50) below 100 nM.

With `CC1(C(=O)n2nc(-c3cccn(Cc4ccsc4)c3=O)cc2NCc2ccc(Cl)s2)CCOCC1` [Cmpd 158, 3-(5-[(5-chlorothiophen-2-yl)methyl]amino-1-[(4-methyloxan-4-yl)carbonyl]-1H-pyrazol-3-yl)-1-(thiophen-3-ylmethyl)-1,2-dihydropyridin-2-one], the IC50 is below 100 nM.

In turn, `CC1(C(=O)n2nc(-c3cccn(CCN4CCOCC4)c3=O)cc2NCc2ccc(Cl)s2)CCOCC1` [Cmpd 159, 3-(5-[(5-chlorothiophen-2-yl)methyl]amino-1-[(4-methyloxan-4-yl)carbonyl]-1H-pyrazol-3-yl)-1-[2-(morpholin-4-yl)ethyl]-1,2-dihydropyridin-2-one] displayed an IC50 above 100000 nM.

As to `O=C(c1ccco1)n1nc(-c2cccn(Cc3ccco3)c2=O)cc1NCc1ccc(Cl)s1` [Cmpd 161, 3-(5-[(5-chlorothiophen-2-yl)methyl]amino-1-[(furan-2-yl)carbonyl]-1H-pyrazol-3-yl)-1-(furan-2-ylmethyl)-1,2-dihydropyridin-2-one], the IC50 was below 100 nM.

Turning to `O=C(c1ccco1)n1nc(-c2cccn(Cc3ccoc3)c2=O)cc1NCc1ccc(Cl)s1` [Cmpd 162, 3-(5-[(5-chlorothiophen-2-yl)methyl]amino-1-[(furan-2-yl)carbonyl]-1H-pyrazol-3-yl)-1-(furan-3-ylmethyl)-1,2-dihydropyridin-2-one], the IC50 is below 100 nM.

On to `O=C(c1ccco1)n1nc(-c2cccn(Cc3cccnn3)c2=O)cc1NCc1ccc(Cl)s1` [Cmpd 163, 3-(5-[(5-chlorothiophen-2-yl)methyl]amino-1-[(furan-2-yl)carbonyl]-1H-pyrazol-3-yl)-1-(pyridazin-3-ylmethyl)-1,2-dihydropyridin-2-one], for which the IC50 is above 100000 nM.

In the case of `O=C(c1ccco1)n1nc(-c2cccn(Cc3ccccn3)c2=O)cc1NCc1ccc(Cl)s1` [Cmpd 164, 3-(5-[(5-chlorothiophen-2-yl)methyl]amino-1-[(furan-2-yl)carbonyl]-1H-pyrazol-3-yl)-1-(pyridin-2-ylmethyl)-1,2-dihydropyridin-2-one], the IC50 was below 100 nM.

Turning to `O=C(c1ccco1)n1nc(-c2cccn(Cc3cccnc3)c2=O)cc1NCc1ccc(Cl)s1` [Cmpd 165, 3-(5-[(5-chlorothiophen-2-yl)methyl]amino-1-[(furan-2-yl)carbonyl]-1H-pyrazol-3-yl)-1-(pyridin-3-ylmethyl)-1,2-dihydropyridin-2-one], the IC50 is below 100 nM.

Regarding `O=C(c1ccco1)n1nc(-c2cccn(Cc3ccncc3)c2=O)cc1NCc1ccc(Cl)s1` [Cmpd 166, 3-(5-[(5-chlorothiophen-2-yl)methyl]amino-1-[(furan-2-yl)carbonyl]-1H-pyrazol-3-yl)-1-(pyridin-4-ylmethyl)-1,2-dihydropyridin-2-one], the IC50 was below 100 nM.

`O=C(c1ccco1)n1nc(-c2cccn(Cc3ncccn3)c2=O)cc1NCc1ccc(Cl)s1` [Cmpd 167, 3-(5-[(5-chlorothiophen-2-yl)methyl]amino-1-[(furan-2-yl)carbonyl]-1H-pyrazol-3-yl)-1-(pyrimidin-2-ylmethyl)-1,2-dihydropyridin-2-one] gave an IC50 below 100 nM.

For the molecule `O=C(c1ccco1)n1nc(-c2cccn(Cc3cccs3)c2=O)cc1NCc1ccc(Cl)s1` [Cmpd 168, 3-(5-[(5-chlorothiophen-2-yl)methyl]amino-1-[(furan-2-yl)carbonyl]-1H-pyrazol-3-yl)-1-(thiophen-2-ylmethyl)-1,2-dihydropyridin-2-one], the IC50 was below 100 nM.

For `O=C(c1ccco1)n1nc(-c2cccn(Cc3ccsc3)c2=O)cc1NCc1ccc(Cl)s1` [Cmpd 169, 3-(5-[(5-chlorothiophen-2-yl)methyl]amino-1-[(furan-2-yl)carbonyl]-1H-pyrazol-3-yl)-1-(thiophen-3-ylmethyl)-1,2-dihydropyridin-2-one], the IC50 is below 100 nM.

With `O=C(c1ccco1)n1nc(-c2cccn(CCN3CCOCC3)c2=O)cc1NCc1ccc(Cl)s1` [Cmpd 170, 3-(5-[(5-chlorothiophen-2-yl)methyl]amino-1-[(furan-2-yl)carbonyl]-1H-pyrazol-3-yl)-1-[2-(morpholin-4-yl)ethyl]-1,2-dihydropyridin-2-one], the IC50 is above 100000 nM.

`COCCn1cccc(-c2cc(NCc3ccc(Cl)s3)n(C(=O)c3ccoc3)n2)c1=O` [Cmpd 171, 3-(5-[(5-chlorothiophen-2-yl)methyl]amino-1-[(furan-3-yl)carbonyl]-1H-pyrazol-3-yl)-1-(2-methoxyethyl)-1,2-dihydropyridin-2-one] had an IC50 above 100000 nM.

`O=C(c1ccoc1)n1nc(-c2cccn(CCc3ccccc3)c2=O)cc1NCc1ccc(Cl)s1` [Cmpd 172, 3-(5-[(5-chlorothiophen-2-yl)methyl]amino-1-[(furan-3-yl)carbonyl]-1H-pyrazol-3-yl)-1-(2-phenylethyl)-1,2-dihydropyridin-2-one] came in with an IC50 below 100 nM.

With `O=C(c1ccoc1)n1nc(-c2cccn(Cc3ccoc3)c2=O)cc1NCc1ccc(Cl)s1` [Cmpd 173, 3-(5-[(5-chlorothiophen-2-yl)methyl]amino-1-[(furan-3-yl)carbonyl]-1H-pyrazol-3-yl)-1-(furan-3-ylmethyl)-1,2-dihydropyridin-2-one], the IC50 is below 100 nM.

The molecule `O=C(c1ccoc1)n1nc(-c2cccn(Cc3cccc4ccccc34)c2=O)cc1NCc1ccc(Cl)s1` [Cmpd 174, 3-(5-[(5-chlorothiophen-2-yl)methyl]amino-1-[(furan-3-yl)carbonyl]-1H-pyrazol-3-yl)-1-(naphthalen-1-ylmethyl)-1,2-dihydropyridin-2-one] registered an IC50 below 100 nM.

`O=C(c1ccoc1)n1nc(-c2cccn(Cc3ccc4ccccc4c3)c2=O)cc1NCc1ccc(Cl)s1` [Cmpd 175, 3-(5-[(5-chlorothiophen-2-yl)methyl]amino-1-[(furan-3-yl)carbonyl]-1H-pyrazol-3-yl)-1-(naphthalen-2-ylmethyl)-1,2-dihydropyridin-2-one] gave an IC50 below 100 nM.

As to `O=C(c1ccoc1)n1nc(-c2cccn(Cc3cccnn3)c2=O)cc1NCc1ccc(Cl)s1` [Cmpd 176, 3-(5-[(5-chlorothiophen-2-yl)methyl]amino-1-[(furan-3-yl)carbonyl]-1H-pyrazol-3-yl)-1-(pyridazin-3-ylmethyl)-1,2-dihydropyridin-2-one], the IC50 is below 100 nM.

`O=C(c1ccoc1)n1nc(-c2cccn(Cc3cccnc3)c2=O)cc1NCc1ccc(Cl)s1` [Cmpd 177, 3-(5-[(5-chlorothiophen-2-yl)methyl]amino-1-[(furan-3-yl)carbonyl]-1H-pyrazol-3-yl)-1-(pyridin-3-ylmethyl)-1,2-dihydropyridin-2-one]: the concentration for half-maximal inhibition (IC50) was below 100 nM.

Regarding `O=C(c1ccoc1)n1nc(-c2cccn(Cc3ncccn3)c2=O)cc1NCc1ccc(Cl)s1` [Cmpd 178, 3-(5-[(5-chlorothiophen-2-yl)methyl]amino-1-[(furan-3-yl)carbonyl]-1H-pyrazol-3-yl)-1-(pyrimidin-2-ylmethyl)-1,2-dihydropyridin-2-one], the IC50 was below 100 nM.

Take `O=C(Cn1cccc(-c2cc(NCc3ccc(Cl)s3)n(C(=O)c3ccoc3)n2)c1=O)N1CCOCC1` [Cmpd 180, 3-(5-[(5-chlorothiophen-2-yl)methyl]amino-1-[(furan-3-yl)carbonyl]-1H-pyrazol-3-yl)-1-[2-(morpholin-4-yl)-2-oxoethyl]-1,2-dihydropyridin-2-one]: the IC50 is below 100 nM.

For `O=C(c1ccoc1)n1nc(-c2cccn(CCN3CCOCC3)c2=O)cc1NCc1ccc(Cl)s1` [Cmpd 181, 3-(5-[(5-chlorothiophen-2-yl)methyl]amino-1-[(furan-3-yl)carbonyl]-1H-pyrazol-3-yl)-1-[2-(morpholin-4-yl)ethyl]-1,2-dihydropyridin-2-one], the IC50 is below 100 nM.

`O=C(c1cccs1)n1nc(-c2cccn(Cc3ccco3)c2=O)cc1NCc1ccc(Cl)s1` [Cmpd 183, 3-(5-[(5-chlorothiophen-2-yl)methyl]amino-1-[(thiophen-2-yl)carbonyl]-1H-pyrazol-3-yl)-1-(furan-2-ylmethyl)-1,2-dihydropyridin-2-one] came in with an IC50 below 100 nM.

For the molecule `O=C(c1cccs1)n1nc(-c2cccn(Cc3cccnn3)c2=O)cc1NCc1ccc(Cl)s1` [Cmpd 185, 3-(5-[(5-chlorothiophen-2-yl)methyl]amino-1-[(thiophen-2-yl)carbonyl]-1H-pyrazol-3-yl)-1-(pyridazin-3-ylmethyl)-1,2-dihydropyridin-2-one], the IC50 is above 100000 nM.

Consider `O=C(c1cccs1)n1nc(-c2cccn(Cc3ccccn3)c2=O)cc1NCc1ccc(Cl)s1` [Cmpd 186, 3-(5-[(5-chlorothiophen-2-yl)methyl]amino-1-[(thiophen-2-yl)carbonyl]-1H-pyrazol-3-yl)-1-(pyridin-2-ylmethyl)-1,2-dihydropyridin-2-one], for which the 50% inhibitory concentration (IC50) is below 100 nM.

For the origin of these results see patent US9687479B2, “Multisubstituted aromatic compounds as serine protease inhibitors” (VERSEON CORPORATION, priority 2013, dated 2017).
